“Also recorded” adds a separate entry of the source.
What was measured:
[1] = target: T1, porcine intestinal vitamin D receptor (Sus scrofa, UniProt A3RGC1); test: Competitive binding to the porcine intestinal vitamin D receptor ([3H]-1,25-(OH)2-D3 displacement); set-up: species or system pig; details: for ability to bind the porcine intestinal vitamin D receptor, in words: FIGS. 1, 3 and 5, comparison in words
T1 construct: from tissue; host or cells: porcine intestine
T1 sequence (A3RGC1 1-427): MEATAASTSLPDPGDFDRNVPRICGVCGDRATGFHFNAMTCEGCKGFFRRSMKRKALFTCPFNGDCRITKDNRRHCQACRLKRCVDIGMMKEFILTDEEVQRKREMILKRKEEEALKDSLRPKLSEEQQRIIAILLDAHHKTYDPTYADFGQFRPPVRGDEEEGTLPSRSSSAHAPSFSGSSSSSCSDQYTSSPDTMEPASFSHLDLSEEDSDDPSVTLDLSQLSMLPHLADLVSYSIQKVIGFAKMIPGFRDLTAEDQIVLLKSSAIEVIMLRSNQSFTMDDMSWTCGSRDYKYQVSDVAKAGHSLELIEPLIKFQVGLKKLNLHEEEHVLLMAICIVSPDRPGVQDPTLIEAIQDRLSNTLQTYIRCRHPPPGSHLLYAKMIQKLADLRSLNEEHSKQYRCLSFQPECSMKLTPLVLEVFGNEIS

[2] = test system: intestinal calcium transport; test: Intestinal calcium transport (everted sac), chronic doses 7 days i.p., vitamin D-deficient rats; type: in vivo, rat; details: for intestinal calcium transport activity, in words: chronic 7 days, 130 and/or 260 pmol/day
Experimental: (§1) Male weanling rats were obtained from Sprague Dawley Co. (Indianapolis, Ind.) and fed a 0.47% calcium, 0.3% phosphorus vitamin D-deficient diet for 1 week and then given the same diet containing 0.02% calcium, 0.3% phosphorus for 2 weeks. During the last week they were given the indicated dose of compound by intraperitoneal injection in 0.1 ml 95% propylene glycol and 5% ethanol each day for 7 days. The control animals received only the 0.1 ml of 95% propylene glycol, 5% ethanol. Twenty-four hours after the last dose, the rats were sacrificed and intestinal calcium transport was determined by everted sac technique as previously described and serum calcium determined by atomic absorption spectrometry on a model 3110 Perkin Elmer instrument (Norwalk, Conn.). There were 5 rats per group and the values represent mean±SEM.
as §1, with “With respect to the data in Tables 3 and 4, male” for “Male”, “atormic” for “atomic”

[3] = test system: serum calcium (bone calcium mobilization); test: Serum calcium (bone calcium mobilization), chronic doses 7 days i.p., vitamin D-deficient rats; type: in vivo, rat; details: for calcemic activity (intestinal calcium transport and bone calcium mobilization), in words: chronic doses, rats; for bone calcium mobilization (serum calcium) activity, in words: chronic 7 days, 130 and/or 260 pmol/day
Experimental: as §1
as §1, with “With respect to the data in Tables 3 and 4, male” for “Male”, “atormic” for “atomic”

[4] = test system: human promyelocyte HL-60 cells; test: Differentiation of HL-60 promyelocytes into monocytes (NBT reduction); type: cell-based; details: for induction of differentiation of HL-60 cells to monocytes, in words: FIGS. 2, 4, 6, comparison in words; for HL-60 differentiation, more active than corresponding 2β-isomer: 12 vs 13, 18 vs 19
Source text: In the next assay, the cellular activity of the synthesized compounds was established by studying their ability to induce differentiation of human promyelocyte HL-60 cells into monocytes.

[5] = Table 5, 130 pmol/day/7 days i.p., listed as 2β-Hydroxymethyl-19-nor-20(S)-1,25-(OH)2D3
[6] = Table 5, 260 pmol/day/7 days i.p., listed as 2β-Hydroxymethyl-19-nor-20(S)-1,25-(OH)2D3
[7] = Table 3, 130 pmol/day/7 days i.p., mean±SEM
[8] = Table 3, 260 pmol/day/7 days i.p., mean±SEM
[9] = Table 5, 130 pmol/day/7 days i.p.
[10] = Table 5, 260 pmol/day/7 days i.p.
[11] = Table 4, 130 pmol/day/7 days i.p., mean±SEM
[12] = Table 4, 260 pmol/day/7 days i.p., mean±SEM

Row | Structure (SMILES) | calcemic activity (intestinal calcium transport and bone calcium mobilization), in words [3] | induction of differentiation of HL-60 cells to monocytes, in words [4] | ability to bind the porcine intestinal vitamin D receptor, in words [1] | Intestinal Calcium Transport (S/M) [2, 7] | Intestinal Calcium Transport (S/M) [2, 8] | intestinal calcium transport activity, in words [2] | bone calcium mobilization (serum calcium) activity, in words [3] | HL-60 differentiation, more active than corresponding 2β-isomer [4] | further results
1 | CC(CCCC(C)(C)O)C1CCC2C(=CC=C3CC(O)C(CO)C(O)C3)CCCC21C [Compound 23, 20(S)-1α,25-Dihydroxy-2β-(hydroxymethyl)-19-norvitamin D3] | relatively inactive; also recorded: lack of calcemic activity | high potency in cellular differentiation |  |  |  |  |  |  | receptor binding, less potent than 22 and 1α,25-(OH)2D3 ([1]; relative to 22 and 1α,25-(OH)2D3): 6–8 ×; Intestinal Calcium Transport (S/M) [2, 5]: 3.5 ± 0.7 S/M; Intestinal Calcium Transport (S/M) [2, 6]: 3.5 ± 0.3 S/M; Serum Calcium [3, 5]: 3.6 ± 0.1 mg/100 ml; Serum Calcium [3, 6]: 3.5 ± 0.2 mg/100 ml
2 | CC1C(O)CC(=CC=C2CCC[C@]3(C)[C@@H]([C@@H](C)CCCC(C)(C)O)CC[C@@H]23)CC1O (stereo partly drawn) [Compound 19, 20(S)-1α,25-Dihydroxy-2β-methyl-19-nor-vitamin D3] | lack of calcemic activity | high potency in cellular differentiation | about as active as 1α,25-(OH)2D3 | 2.9 ± 0.3 S/M | 3.8 ± 0.1 S/M | little, if any, intestinal calcium transport activity | little, if any, bone mobilization activity |  | Serum Calcium [3, 7]: 4.4 ± 0.1 mg/100 ml; Serum Calcium [3, 8]: 4.4 ± 0.1 mg/100 ml
3 | CC(CCCC(C)(C)O)C1CCC2C(=CC=C3CC(O)C(CO)C(O)C3)CCCC21C [Compound 22, 2α-Hydroxymethyl-19-nor-20(S)-1,25-(OH)2D3] | relatively inactive; also recorded: lack of calcemic activity | high potency in cellular differentiation | almost equivalent to 1α,25-(OH)2D3 |  |  |  |  |  | Intestinal Calcium Transport (S/M) [2, 9]: 5.0 ± 0.3 S/M; Intestinal Calcium Transport (S/M) [2, 10]: 5.8 ± 0.4 S/M; Serum Calcium [3, 9]: 4.0 ± 0.1 mg/100 ml; Serum Calcium [3, 10]: 3.9 ± 0.1 mg/100 ml
4 | CC(CCCC(C)(C)O)C1CCC2C(=CC=C3CC(O)C(C)C(O)C3)CCCC21C (stereo not drawn) [Compound 18, 2α-methyl-19-nor-20S-1,25-(OH)2D3] |  | extremely potent | about as active as 1α,25-(OH)2D3 | 12.9 ± 1.9 S/M | 8.4 ± 1.1 S/M | significant change in intestinal calcium transport at both the 260 pmol and the 130 pmol dose levels | much higher than that of the native hormone | 10 times | Serum Calcium ([3]; Table 3, 130 pmol/day/7 days i.p., mean±SEM, listed as 2α-Methyl-19-nor-20(S)-1,25-(OH)2D3): 8.3 ± 0.7 mg/100 ml; Serum Calcium ([3]; Table 3, 130 pmol/day/7 days i.p., mean±SEM, listed as 2α-methyl-19-nor-20S-1,25-(OH)2D3): 8.3±0.7 mg/100 ml; Serum Calcium ([3]; Table 3, 260 pmol/day/7 days i.p., mean±SEM, listed as 2α-Methyl-19-nor-20(S)-1,25-(OH)2D3): 10.3 ± 0.11 mg/100 ml; Serum Calcium ([3]; Table 3, 260 pmol/day/7 days i.p., mean±SEM, listed as 2α-methyl-19-nor-20S-1,25-(OH)2D3): 10.3±0.11 mg/100 ml
5 | CC1[C@H](O)CC(=C/C=C2\CCC[C@]3(C)[C@@H]([C@H](C)CCCC(C)(C)O)CC[C@@H]23)C[C@H]1O (stereo partly drawn) [Compound 12, 2α-methyl-19-nor-1,25-(OH)2D3] |  | extremely potent | about as active as 1α,25-(OH)2D3 |  |  | some intestinal calcium transport activity | relatively strong bone calcium mobilization at both dose levels | 100 times | Intestinal Calcium Transport (S/M) [2, 11]: 4.3 ± 1.0 S/M; Intestinal Calcium Transport (S/M) [2, 12]: 5.3 ± 1.3 S/M; Serum Calcium [3, 11]: 4.8 ± 0.2 mg/100 ml; Serum Calcium [3, 12]: 5.8 ± 0.5 mg/100 ml
6 | CC(CCCC(C)(C)O)C1CCC2C(=CC=C3CC(O)C(CO)C(O)C3)CCCC21C (stereo not drawn) [Compound 21, 1α,25-Dihydroxy-2β-(hydroxymethyl)-19-norvitamin D3] |  |  |  |  |  |  |  |  | receptor binding, less effective than 2α-hydroxymethyl analog 20 ([1]; relative to 20): ca. 8 times

From patent publication US7112579B2, “26,27-Homologated-20-EPI-2-alkyl-19-nor-vitamin D compounds” (Wisconsin Alumni Research Foundation, priority 1997, dated 2006)
